Experiments:
[1] = method code SF, from DOI: 10.1021/jm950585l, PMID: 8632436
[2] = pH 9.2
[3] = method code SF-AS, from DOI: 10.1021/jm991080o, PMID: 10579844; details: pH 7.4
[4] = method code SF, from DOI: 10.1021/jm00114a024, PMID: 1920362
[5] = method code SF-AS, from PMID: 11446164; details: pH 5.9
[6] = from Tomlinson, E.; Davis, S.; Parr, G.; James, M.; Farraj, N.; Kinkel, J.; Gaisser, D.; Wynne, H. (1986). The filter-probe extractor: a versatile tool for the rapid determination of solute oil/water …
[7] = method code SF-RC, from PMID: 1811623
[8] = not given; remark: listed apart in the source
[9] = not given; remark: listed apart in the source
[10] = not given; remark: listed apart in the source
[11] = not given; remark: listed apart in the source
[12] = method code SF-AS, from DOI: 10.1016/0223-5234(94)90063-9; details: pH 2.0
[13] = not given; remark: listed apart in the source
[14] = from Afshan, A.; Jehangir, M.; Amin, W.; Mujahid, A. (2000). Study of various esters of ethylcysteine acid dimer as brain perfusion imaging agents and formulation into single vial kit for labelling with …; details: pH 7.5
[15] = method code SF-AS, from DOI: 10.1016/0048-3575(87)90152-0
[16] = not given; remark: listed apart in the source
[17] = method code SF-AS, from PMID: 578762; details: pH 7.4
[18] = method code SF-HPLC, from DOI: 10.1111/j.1747-0285.2011.01193.x, PMID: 21777394; details: pH 7.4
[19] = method code SF-AS, from PMID: 1042; details: pH 7.4
[20] = method code SF-AS, from DOI: 10.1002/jps.2600741028, PMID: 4078715
[21] = method code SF-HPLC, from DOI: 10.1016/0378-5173(95)00102-o
[22] = method code SF-RC, from DOI: 10.1021/es00096a007
[23] = not given; remark: listed apart in the source
[24] = method code SF-EIA, from DOI: 10.1016/j.carres.2004.12.038, PMID: 15797137
[25] = method code RP-HPLC, from DOI: 10.1016/0143-7208(91)85018-4; details: pH 7.0
[26] = method code SF-RC, from DOI: 10.1021/jm901850k, PMID: 20411954; details: pH 7.4
[27] = method code SF-AS, from PMID: 7849133; details: pH 3.6
[28] = method code SF-RC, from DOI: 10.1016/s0969-8051(98)00005-5, PMID: 9720665; details: pH 7.0
[29] = method code SF, from DOI: 10.1021/jm0498699.s001, PMID: 15163209
[30] = method code SF-AS, from DOI: 10.1002/jps.2600620542, PMID: 4705706
[31] = not given; remark: listed apart in the source
[32] = not given; remark: listed apart in the source
[33] = method code SF-RC, from DOI: 10.1002/jlcr.1863; details: pH 7.4
[34] = method code SF, from DOI: 10.1016/0048-3575(74)90109-6
[35] = method code SF-RC, from DOI: 10.1111/j.2042-7158.1987.tb06949.x, PMID: 2882008; details: pH 1.0
[36] = method code SF, from DOI: 10.1021/jm00019a019, PMID: 7562920; details: pH 10.0
[37] = method code SF-AS, from DOI: 10.1016/0378-5173(88)90083-x; details: pH 7.3
[38] = method code SF, from DOI: 10.3109/00498258909043190, PMID: 2618089; details: pH 10.8
[39] = method code SF-HPLC, from DOI: 10.1021/jm030477w, PMID: 15084119; details: pH 7.4
[40] = not given; remark: listed apart in the source
[41] = method code SF-RC, from DOI: 10.1002/ps.2780240105; details: pH 7.0
[42] = not given; remark: listed apart in the source
[43] = method code SF-AS, from DOI: 10.1002/ardp.19843170314
[44] = method code SF-RC, from DOI: 10.1021/jm0607193, PMID: 17004725
[45] = method code SF-HPLC, from DOI: 10.1016/0928-0987(95)00046-1; details: pH 4.0
[46] = method code SF-AS, from PMID: 19779; details: pH 2.0
[47] = method code SF, from DOI: 10.1021/jm00151a007, PMID: 3941412; details: pH 9.0
[48] = method code SF-RC, from DOI: 10.1021/jf60204a016

Question: Which logP [1] does the source give for `Cc1cc2c(ccc3c(C)cc(=O)[nH]c32)o1` here?
Answer: Its logP is 2.21.

Question: Which logD [2] does the source give for `CC(C)CNCNC(=O)c1ccccc1` here?
Answer: Its logD is 1.73.

Question: For `CCc1c(O)c(=O)ccn1CCOC(=O)C(C)C`, which logD [3] is on record?
Answer: The logD was 0.7.

Question: Which logP does the source give for `CCC(O)(CCC(N)=O)c1ccccc1` (centres undefined) here?
Answer: Its logP is 2.11.

Question: With `CN(CCN)S(=O)(=O)c1ccc(C(C)(C)[N+](=O)[O-])c([N+](=O)[O-])c1` as the molecule, how does the logP [4] read?
Answer: The logP was 0.62.

Question: Which logD [5] does the source give for `O=C1N=C(N2CCOCC2)CN1c1ccc(Cl)cc1` here?
Answer: The logD was 1.32.

Question: For `CNC(=O)[C@H](Cc1ccccc1)NC(C)=O`, which logP [6] is on record?
Answer: The logP was 0.5.

Question: Which logP [7] does the source give for `Cc1c(C)c2ccc3occc3c2oc1=O` here?
Answer: Its logP is 2.9.

Question: Which logP [8] does the source give for `CCN(CC)CCOC(=O)c1ccc(N)cc1` here?
Answer: Its logP is 2.1.

Question: For `C(=C\c1ccccc1)/c1ccccc1`, which logP [9] is on record?
Answer: Its logP is 4.59.

Question: For `Cc1cc(NC(=O)C2=C(O)c3ccccc3S(=O)(=O)N2C)no1`, which logP [10] is on record?
Answer: Its logP is 2.83.

Question: Which logP [11] does the source give for `CCC(N)C(=O)Nc1c(C)cccc1C` (centres undefined) here?
Answer: The logP was 0.84.

Question: Which logD [12] does the source give for `Cn1c(CC(=O)O)cnc1C(=O)c1ccccc1` here?
Answer: The logD was 0.22.

Question: For `O=C(O)C1(O)c2ccccc2-c2ccc(Cl)cc21` (centres undefined), which logP [13] is on record?
Answer: The logP was 3.22.

Question: For `CCOC(=O)[C@H](CS)NCCN[C@@H](CS)C(=O)OCC`, which logD [14] is on record?
Answer: Its logD is 1.4.

Question: With `CCC(C(=O)Oc1ccccc1)C(C)C` (centres undefined) as the molecule, how does the logP [15] read?
Answer: Its logP is 4.2.

Question: For `CC1c2nc3ccccc3c(=O)n2CCN1C` (centres undefined), which logP [16] is on record?
Answer: Its logP is 0.64.

Question: For `CCOC(=O)/C=C1\SC(N2CCCC2)C(=O)N1C` (centres undefined), which logD [17] is on record?
Answer: The logD was 2.

Question: For `C[C@@H](OC(=O)N(N(CCCl)S(C)(=O)=O)S(C)(=O)=O)c1ccc([N+](=O)[O-])cc1`, which logD [18] is on record?
Answer: Its logD is 2.15.

Question: With `CCCCOc1ccc(CC(=O)NO)cc1` as the molecule, how does the logD [19] read?
Answer: Its logD is 2.08.

Question: Which logP [20] does the source give for `COc1ccc(C=[N+]([O-])c2ccccc2)cc1` here?
Answer: The logP was 1.94.

Question: With `CCCCCCOC(=O)c1cccnc1` as the molecule, how does the logP [21] read?
Answer: Its logP is 3.51.

Question: With `Nc1ccc2cc3ccccc3cc2c1` as the molecule, how does the logP [22] read?
Answer: The logP was 4.13.

Question: For `CCCCCOC(=O)c1ccc(O)cc1`, which logP [23] is on record?
Answer: The logP was 3.65.

Question: Which logP [24] does the source give for `OC[C@H]1O[C@H](O[C@H]2O[C@H](CO)[C@@H](O)[C@H](O)[C@H]2O)[C@H](O)[C@@H](O)[C@@H]1O` here?
Answer: The logP was -3.76.

Question: With `Nc1ccc(N)c2c1C(=O)c1ccccc1C2=O` as the molecule, how does the logD [25] read?
Answer: The logD was 3.

Question: Which logD [26] does the source give for `CON=C1C=C(C#Cc2csc(CF)n2)CCC1` here?
Answer: Its logD is 1.6.

Question: With `O=C(O)c1cccnc1Nc1cccc(C(F)(F)F)c1` as the molecule, how does the logD [27] read?
Answer: The logD was 2.95.

Question: Which logD [28] does the source give for `OC1OC2COC(c3ccc(I)cc3)OC2C(O)C1O` (centres undefined) here?
Answer: The logD was 1.9.

Question: With `COC(=O)CCNC(=O)c1cc(N2CC2)c([N+](=O)[O-])cc1[N+](=O)[O-]` as the molecule, how does the logP [29] read?
Answer: Its logP is 0.56.

Question: For `COc1ccc(C(=O)c2ccncc2)cc1`, which logP [30] is on record?
Answer: The logP was 1.94.

Question: For `Ic1ccc2nc(-c3ccc(-c4nnn[nH]4)cc3)cn2c1`, which logP [31] is on record?
Answer: The logP was 1.73.

Question: Which logP [32] does the source give for `CN1C(=O)NC(=O)C(C)(C2=CCCCC2)C1=O` (centres undefined) here?
Answer: Its logP is 1.71.

Question: Which logD [33] does the source give for `O=c1[nH]c(=O)n(C2CC(O)C(CO)O2)cc1-c1cn(CCF)nn1` (centres undefined) here?
Answer: The logD was -1.33.

Question: Which logP [34] does the source give for `Fc1ccc(C(c2ccc(F)cc2)C(Cl)(Cl)Cl)cc1` here?
Answer: The logP was 4.62.

Question: With `Cc1c(Cl)cccc1Nc1ccccc1C(=O)O` as the molecule, how does the logD [35] read?
Answer: The logD was 4.18.

Question: Which logD [36] does the source give for `CNc1ncnc2c1ncn2Cc1ccccc1F` here?
Answer: The logD was 1.86.

Question: Which logD [37] does the source give for `O=C(c1ccc(Cl)cc1)c1cc(F)ccc1O` here?
Answer: The logD was 4.05.

Question: For `O=C(Cn1c(=O)sc2ccc(Cl)cc21)N1CCNCC1`, which logD [38] is on record?
Answer: Its logD is 1.35.

Question: Which logD [39] does the source give for `Nc1ccc(-c2cn3cc(I)ccc3n2)cc1` here?
Answer: Its logD is 3.58.

Question: For `CCn1cc(C(=O)O)c(=O)c2cc3nc[nH]c3cc21`, which logP [40] is on record?
Answer: The logP was 0.41.

Question: For `CCCCc1c(C)nc(NCC)nc1OS(=O)(=O)N(C)C`, which logD [41] is on record?
Answer: Its logD is 2.7.

Question: Which logP [42] does the source give for `OC(Cn1cncn1)(Cn1cncn1)c1ccc(Cl)cc1Cl` here?
Answer: Its logP is 1.1.

Question: With `O=C(O)Cc1ccccc1Oc1ccc(Cl)cc1Cl` as the molecule, how does the logP [43] read?
Answer: Its logP is 4.8.

Question: With `COc1cc(C=CC(=O)C=C(C)O)cc(I)c1O` as the molecule, how does the logP [44] read?
Answer: The logP was 1.35.

Question: Which logD [45] does the source give for `Cc1cnc(NC(=O)C2=C(O)c3ccccc3S(=O)(=O)N2C)s1` here?
Answer: The logD was 2.34.

Question: For `CCC1(c2ccccc2)C(=O)NC(=O)N(C)C1=O` (centres undefined), which logD [46] is on record?
Answer: Its logD is 1.84.

Question: For `CNc1c(NCCSCc2nc[nH]c2C)c(=O)c1=O`, which logD [47] is on record?
Answer: The logD was -0.08.

Question: With `CC(C)c1onc2nc(C(C)(C)C)[nH]c(=O)c12` as the molecule, how does the logP [48] read?
Answer: Its logP is 2.34.

From the SangsterLogP compilation
